{"source": "patent US10022377B2", "about": "“Method of treating hypertension” (Cipla Limited, priority 2015, dated 2018)", "key": {"platelets [1]": {"system": "platelets", "settings": "preclinical pharmacology data; in words; cited from earlier work"}, "[2]": {"system": "rats with monocrotaline induced pulmonary arterial hypertension", "assay": "Hemodynamic evaluation in anesthetized rats treated with monocrotaline to induce pulmonary arterial hypertension", "assay_type": "in vivo, Sprague-Dawley rats", "settings": "for HR / HW/BW / Heart Wt / LV Wt / Lung Wt / MAP / Mean PAP / RV Wt / RV/BW / Systolic PAP / RV/LV + S: 28 days, MCT rats, mean ± SEM; for RV/LV + S: Fulton's Index", "description": "The effects of sildenafil and anagrelide were evaluated in rats with monocrotaline induced pulmonary arterial hypertension. Male Sprague-Dawley rats were orally administered vehicle (variable, see below), anagrelide (1 mg/kg given once daily for 28 days or 2 mg/kg total daily dose, divided into a BID regimen given every day for 28 days starting on Day 1), or sildenafil (30 mg/kg, administered twice daily) (n=10 in each group). Rats received a single injection of monocrotaline (60 mg/kg, s.c.) on Study Day 1. On the twenty-eighth day following monocrotaline dosing, the rats were anesthetized with ketamine/xylazine for terminal monitoring of pulmonary and systemic arterial pressures along with heart rate. The study design for the test article and vehicle administrations are detailed below: […]"}, "[3]": {"system": "rat monocrotaline (MCT) model of PAH", "assay": "Pulmonary arterial hypertension efficacy model: monocrotaline rat", "assay_type": "in vivo, Sprague-Dawley rats", "settings": "in words", "description": "Adult male Sprague-Dawley rats (287±4 g) were obtained from Charles River Laboratories (Raleigh, N.C.). Animals housed individually in a temperature/humidity controlled room with 12-hour light/dark cycles, had free access to water and food and were acclimated for one week prior to the study. Rats were randomly assigned to one of the experimental groups (n=10 per group). Rats in groups 1 and 2 served as healthy controls; the remaining rats were injected subcutaneously on Day 0 with 60 mg/kg body weight monocrotaline, the toxic alkaloid of Crotalaria spectabilis, (dissolved in DMSO at a concentration of 60 mg/ml, Sigma Aldrich, St. Louis, Mo.). On days 1-21, the rats were dosed via oral gavage (2 ml/kg) with vehicle (PBS), or the test compound—Anagrelide. Rats were weighed daily, and the dosages of test compound adjusted appropriately.\nMonocrotaline (MCT) is an 11-membered macrocyclic pyrrolizidine plant alkaloid. A single SQ injection into rats results in hepatic generation of toxic metabolite—MCT pyrrole. Phase II metabolism of MCT is through glutathione conjugation. Reactive metabolite is transported to lungs, injuring pulmonary vasculature."}, "[4]": {"settings": "metabolite versus anagrelide; cited from earlier work"}, "platelets [5]": {"system": "platelets", "settings": "metabolite; in words; cited from earlier work"}, "[6]": {"settings": "2 mg/kg/day given BID, after 28 days, in words"}, "[7]": {"settings": "Anagrelide 1 mg/kg once daily oral"}, "[8]": {"settings": "Anagrelide 2 mg/kg/day bid oral"}, "[9]": {"settings": "daily oral doses for three weeks"}, "[10]": {"settings": "Sildenafil 60 mg/kg/day bid oral"}}, "data": [{"smiles": "O=C1CN2Cc3c(ccc(Cl)c3Cl)N=C2N1", "note": "[Anagrelide, anagrelide]", "values": [{"measurement": "effect on other cellular components of the blood", "setting": "platelets [1]", "value": "no significant effect"}, {"measurement": "inhibition of platelet aggregation", "setting": "platelets [1]", "value": "potent inhibitor"}, {"measurement": "mean pulmonary arterial pressure compared to the vehicle group", "setting": "[2]; [6]", "value": "differences"}, {"measurement": "systolic pulmonary arterial pressure compared to the vehicle group", "setting": "[2]; [6]", "value": "reduction"}, {"measurement": "HR", "setting": "[2]; [7]", "value": "325 ± 28", "unit": "bpm"}, {"measurement": "HW/BW", "setting": "[2]; [7]", "value": "4.34 ± 0.45"}, {"measurement": "Heart Wt", "setting": "[2]; [7]", "value": "1.37 ± 0.03", "unit": "g"}, {"measurement": "LV Wt", "setting": "[2]; [7]", "value": "0.76 ± 0.01", "unit": "g"}, {"measurement": "Lung Wt", "setting": "[2]; [7]", "value": "2.10 ± 0.19", "unit": "g"}, {"measurement": "MAP", "setting": "[2]; [7]", "value": "59 ± 5", "unit": "mm Hg"}, {"measurement": "Mean PAP", "setting": "[2]; [7]", "value": "36 ± 2", "unit": "mm Hg"}, {"measurement": "RV Wt", "setting": "[2]; [7]", "value": "0.47 ± 0.01", "unit": "g"}, {"measurement": "RV/BW", "setting": "[2]; [7]", "value": "1.49 ± 0.16"}, {"measurement": "Systolic PAP", "setting": "[2]; [7]", "value": "44 ± 2", "unit": "mm Hg"}, {"measurement": "HR", "setting": "[2]; [8]", "value": "258 ± 10", "unit": "bpm"}, {"measurement": "HW/BW", "setting": "[2]; [8]", "value": "3.98 ± 0.24"}, {"measurement": "Heart Wt", "setting": "[2]; [8]", "value": "1.21 ± 0.04", "unit": "g"}, {"measurement": "LV Wt", "setting": "[2]; [8]", "value": "0.69 ± 0.02", "unit": "g"}, {"measurement": "Lung Wt", "setting": "[2]; [8]", "value": "2.21 ± 0.07", "unit": "g"}, {"measurement": "MAP", "setting": "[2]; [8]", "value": "52 ± 6", "unit": "mm Hg"}, {"measurement": "Mean PAP", "setting": "[2]; [8]", "value": "36 ± 2", "unit": "mm Hg"}, {"measurement": "RV Wt", "setting": "[2]; [8]", "value": "0.41 ± 0.02", "unit": "g"}, {"measurement": "RV/BW", "setting": "[2]; [8]", "value": "1.35 ± 0.12"}, {"measurement": "Systolic PAP", "setting": "[2]; [8]", "value": "43 ± 4", "unit": "mm Hg"}, {"measurement": "RV/LV + S", "setting": "[2]; [7]", "value": "0.62 ± 0.01"}, {"measurement": "RV/LV + S", "setting": "[2]; [8]", "value": "0.59 ± 0.04"}, {"measurement": "hypertrophy when correcting RV (wt) by body weight", "setting": "[2]; at either dose, in words", "value": "decrease in hypertrophy"}, {"measurement": "Mean arterial pressure compared to vehicle", "setting": "[2]; in words", "value": "lower"}, {"measurement": "right ventricular hypertrophy (RV/LV+S, Fulton's Index) compared to vehicle", "setting": "[2]; in words", "value": "no change"}, {"measurement": "development of PAH", "setting": "[3]; daily oral doses for three weeks after MCT 60 mg/kg s.c.", "value": "prevent the development of PAH"}, {"measurement": "hypertrophy of the right ventricle", "setting": "[3]; [9]", "value": "prevents"}, {"measurement": "monocrotaline (MCT)-induced elevations in pressure in the pulmonary arterial circuit", "setting": "[3]; [9]", "value": "prevents"}]}, {"smiles": "O=C1NC2=Nc3ccc(Cl)c(Cl)c3CN2C1O", "note": "(stereo not drawn) [BCH24426, 3-hydroxy anagrelide]", "values": [{"measurement": "Exposure as measured by plasma AUC compared to anagrelide", "setting": "[4]", "value": "approximately 2 fold"}]}, {"smiles": "NC1=Nc2ccc(Cl)c(Cl)c2CN1", "note": "[RL603, 5,6-dichloro-3,4-dihydroquinazolin-2-ylamine]", "values": [{"measurement": "participation in the overall effect of AGRYLIN", "setting": "platelets [5]", "value": "does not participate"}]}, {"smiles": "CCCc1nn(C)c2c(=O)[nH]c(-c3cc(S(=O)(=O)N4CCN(C)CC4)ccc3OCC)nc12", "note": "[Sildenafil]", "values": [{"measurement": "RV/LV + S", "setting": "[2]; [10]", "value": "0.51 ± 0.03"}, {"measurement": "HR", "setting": "[2]; [10]", "value": "278 ± 21", "unit": "bpm"}, {"measurement": "HW/BW", "setting": "[2]; [10]", "value": "3.89 ± 0.17"}, {"measurement": "Heart Wt", "setting": "[2]; [10]", "value": "1.24 ± 0.02", "unit": "g"}, {"measurement": "LV Wt", "setting": "[2]; [10]", "value": "0.74 ± 0.02", "unit": "g"}, {"measurement": "Lung Wt", "setting": "[2]; [10]", "value": "2.36 ± 0.13", "unit": "g"}, {"measurement": "MAP", "setting": "[2]; [10]", "value": "69 ± 5", "unit": "mm Hg"}, {"measurement": "Mean PAP", "setting": "[2]; [10]", "value": "38± 6", "unit": "mm Hg"}, {"measurement": "RV Wt", "setting": "[2]; [10]", "value": "0.38 ± 0.02", "unit": "g"}, {"measurement": "RV/BW", "setting": "[2]; [10]", "value": "1.19 ± 0.09"}, {"measurement": "Systolic PAP", "setting": "[2]; [10]", "value": "46 ± 7", "unit": "mm Hg"}]}]}
